From US6534524B1, “Indazole compounds and pharmaceutical compositions for inhibiting protein kinases, and methods for their use” (Agouron Pharmaceuticals, Inc., priority 1999, dated 2003) come the findings set out here.

Data set [1] concerns the target unphosphorylated VEGF-R2Δ50 (FLVK) (Homo sapiens, UniProt P35968, DEL940-989/E990V). Put plainly: VEGF-R2 coupled spectrophotometric assay, unphosphorylated VEGF-R2Δ50 (FLVK). As to conditions: FLVK Ki, Table 1.
Data set [2] in a line: Determination of inhibitor concentration in mouse plasma after intraperitoneal and oral dosing. The format is in vivo. The method, then:
Blood collection was via ocular bleed at 0.5, 1, 4 hr with the final time point, 7 hour, via intracardiac puncture. The blood was centrifuged to collect plasma, which was then stored at −80° C. until analysis. Samples were prepared for analysis using an internal standard and sodium hydroxide. After vortexing, ethyl acetate was added and mixed for 15-20 minutes at ambient temperature. […] The samples were then analyzed via HPLC or LC-MS. Compound levels were quantitated by generating a standard curve of known compound concentration in mouse plasma.

Data set [3] concerns human umbilical vein endothelial cells (HUVEC). Put plainly: HUVEC proliferation assay (VEGF-stimulated, MTT). It is filed as cell-based. As to conditions: Homo sapiens, HUVEC, + albumin; read-out: HUVEC + albumin IC50.
[4] abbreviates: female, PO, 25 mg/kg, vehicle 0.5% CMC.
The mark [5] stands for this setting: female, PO, 25 mg/kg, vehicle 0.5% CMC, read-out: Cmax.
[6] abbreviates: female, PO, 25 mg/kg, vehicle 0.5% CMC, read-out: Cmin (7 hr conc.).
[7] abbreviates: PO, 25 mg/kg, vehicle PEG400:H2O pH 2.3 30:70.
The mark [8] stands for this setting: female, PO, 25 mg/kg, vehicle PEG400:H2O pH 2.3 30:70, read-out: Cmin (7 hr conc.).
Where [9] appears, read: IP, 25 mg/kg, vehicle PEG400:H2O pH 2.3 60:40.
Setting [10] is: PO, 50 mg/kg, vehicle PEG400:H2O pH 2.3 60:40.
[11] abbreviates: IP, 25 mg/kg, vehicle PEG400:H2O pH 2.3 30:70.
Setting [12] is: PO, 50 mg/kg, vehicle PEG400:H2O pH 2.3 30:70.
Setting [13] is: PO, 10 mg/kg, vehicle PEG400:H2O pH 2.3 60:40.

Read-outs that look alike come from different tables or passages of the source.

unphosphorylated VEGF-R2Δ50 (FLVK), sequence (P35968 with tags, fused parts or gaps DEL940-989/E990V limits assumed): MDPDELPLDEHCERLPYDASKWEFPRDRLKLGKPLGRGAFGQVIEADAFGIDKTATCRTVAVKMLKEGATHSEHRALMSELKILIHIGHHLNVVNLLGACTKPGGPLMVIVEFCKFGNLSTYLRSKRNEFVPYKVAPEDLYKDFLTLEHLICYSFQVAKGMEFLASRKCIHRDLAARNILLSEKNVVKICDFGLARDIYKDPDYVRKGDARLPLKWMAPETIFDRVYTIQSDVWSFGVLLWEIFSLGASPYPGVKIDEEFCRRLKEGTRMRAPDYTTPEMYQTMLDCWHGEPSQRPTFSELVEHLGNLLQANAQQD

In general, Ki refers to a measure of affinity in units of concentration, obtained from inhibition or displacement. Read a high Ki as lower affinity. In data set [1], `Oc1ccc(-c2ccc3c(-c4cc5ccccc5o4)n[nH]c3c2)cc1OCc1ccccc1` [Example 2(e), 3-(Benzofuran-2-yl)-6-(3-benzyloxy-4-hydroxy-phenyl)-1H-indazole] had a Ki of 40 nM.

For the compound `CC(=O)c1cccc(C(=O)Nc2cccc(N(C)c3ccc4c(/C=C/c5ccc6c(c5)OCO6)n[nH]c4c3)c2)c1` [Example 16(e), 3-Acetyl-N-(3-{[3-(2-benzo[1,3]dioxol-5-yl-vinyl)-1H-indazol-6-yl]-methyl-amino}-phenyl)-benzamide], the Ki in data set [1] worked out at 1.3 nM. This Ki lies about 31-fold lower than the previous one.

As usually defined, the AUC(0-t) is the area under the concentration-time curve up to a stated or last time point. Broadly, the Cmax is the maximum level reached in the sampled fluid or tissue. For `CCn1nc(C)cc1C(=O)Nc1cccc(C(=O)c2ccc3c(/C=C/c4ccccn4)n[nH]c3c2)c1.Cl` [Example 59(a), 6-[3-((1-Ethyl-3-methyl-1H-pyrazol-5-yl)carboxamido)benzoyl]-3-E-[2-(pyridin-2-yl)ethenyl]-1H-indazole Hydrochloride], the “plasma half-life (T1/2)” value came out at 1.5 h in data set [2] (PO, 8 mg/kg, vehicle 0.5% CMC); 2.4 h in data set [2] (PO, 40 mg/kg, vehicle 0.5% CMC); 9.4 h in data set [2] (PO, 200 mg/kg, vehicle 0.5% CMC). Also, the AUC(0-t) in data set [2] (female, PO, 8 mg/kg, vehicle 0.5% CMC) was determined as 7710 ng·h/mL; in data set [2] (setting [4]), 50800 ng·h/mL; in data set [2] (female, PO, 40 mg/kg, vehicle 0.5% CMC), 57200 ng·h/mL; in data set [2] (female, PO, 200 mg/kg, vehicle 0.5% CMC), 156000 ng·h/mL. The Cmax was found to be 2490 ng/mL in data set [2] (female, PO, 8 mg/kg, vehicle 0.5% CMC, read-out: Cmax); 15900 ng/mL in data set [2] (setting [5]); 13800 ng/mL in data set [2] (female, PO, 40 mg/kg, vehicle 0.5% CMC, read-out: Cmax); 30000 ng/mL in data set [2] (female, PO, 200 mg/kg, vehicle 0.5% CMC, read-out: Cmax). The concentration at 7 h was 122 ng/mL in data set [2] (female, PO, 8 mg/kg, vehicle 0.5% CMC, read-out: Cmin (7 hr conc.)); 1200 ng/mL in data set [2] (setting [6]); 1880 ng/mL in data set [2] (female, PO, 40 mg/kg, vehicle 0.5% CMC, read-out: Cmin (7 hr conc.)); 12100 ng/mL in data set [2] (female, PO, 200 mg/kg, vehicle 0.5% CMC, read-out: Cmin (7 hr conc.)).

`CCn1nc(C)cc1C(=O)Nc1cccc(Oc2ccc3c(/C=C/c4cn(C)c(C)n4)n[nH]c3c2)c1` [Example 31(f), 6-[3-((1-Ethyl-3-methyl-1H-pyrazol]-5-yl)carboxanido)phenoxyl-3-E-[2-(1,2-dimethyl-1Himidazol-4-yl)ethenyl]-1H-indazole]: in data set [2] (setting [7]), the “plasma half-life (T1/2)” value is 2.6 h. In addition, the AUC(0-t) in data set [2] (female, PO, 25 mg/kg, vehicle PEG400:H2O pH 2.3 30:70) is above 245000 ng·h/mL. For the same compound, the Cmax in data set [2] (female, PO, 25 mg/kg, vehicle PEG400:H2O pH 2.3 30:70, read-out: Cmax) was above 50000 ng/mL. For the same compound, the concentration at 7 h in data set [2] (setting [8]) was found to be 9520 ng/mL.

For `CCn1nc(C)cc1C(=O)Nc1cccc(Oc2ccc3c(/C=C/c4ccccn4)n[nH]c3c2)c1.Cl` [Example 59(e), 6-[3-((1-Ethyl-3-methyl-1H-pyrazol-5-yl)carboxamido)phenoxy]-3-E-[2-(pyridin-2-yl)ethenyl]-1H-indazole Hydrochloride], the “plasma half-life (T1/2)” value in data set [2] (PO, 25 mg/kg, vehicle 0.5% CMC) is 21 h. In data set [2] (setting [4]), this compound came in with an AUC(0-t) of 12500 ng·h/mL. Also, the Cmax in data set [2] (setting [5]) turned out to be 28800 ng/mL. Also, the concentration at 7 h in data set [2] (setting [6]) came out at 2140 ng/mL.

Turning to `CCc1cc(C(=O)Nc2cccc(C(=O)c3ccc4c(/C=C/c5ccccn5)n[nH]c4c3)c2)n(C)n1` [Example 41(v), 6-[3-((3-Ethyl-1-methyl-1H-pyrazol-5-yl)carboxamido)benzoyl]-3-E-[2-(pyridin-2-yl)ethenyl]-1H-indazole], in data set [2] (setting [7]), the AUClast worked out at 10949 ng·h/mL and the “plasma half-life (T1/2)” value turned out to be 4.4 h. The concentration at 7 h in data set [2] (setting [8]) amounted to 749 ng/mL.

For the compound `Cc1cc(C(=O)Nc2cccc(C(=O)c3ccc4c(/C=C/c5ccccn5)n[nH]c4c3)c2)cc(Cl)n1` [Example 41(q), 6-[3-((2-Chloro-6-methylpyridin-4-yl)carboxanlido)benzoyl]-3-E-[2-(pyridin-2-yl)ethenyl]-1H-indazole], in data set [2] (setting [7]), the “plasma half-life (T1/2)” value came out at 5.2 h. The compound further came in with an AUC(0-t) in data set [2] (female, IP, 25 mg/kg, vehicle PEG400:H2O pH 2.3 30:70) above 27000 ng·h/mL.

Turning to `Cc1cc(C(=O)Nc2cc(C(=O)c3ccc4c(/C=C/c5ccccn5)n[nH]c4c3)ccc2C)n(C)n1` [Example 41(hh), 6-[3-((1,3-Dimethyl-1H-pyrazol-5-yl)carboxaindo)-4-methylbenzoyl]-3-E-[2-(pyridin-2-yl)ethenyl]-1H-indazole], in data set [2] (setting [7]), the AUClast was determined as 5601 ng·h/mL, the Cmax is 1526 ng/mL and the “plasma half-life (T1/2)” value worked out at 7.9 h. Also, the concentration at 7 h in data set [2] (setting [8]) came out at 405 ng/mL.

A word on the IC50: it is the concentration needed to halve the response being measured. Turning to `CN(O)C(=O)c1ccccc1Sc1ccc2c(/C=C/c3ccccn3)n[nH]c2c1` [Example 35(o), 6-[2-(N-Hydroxy-N-methylcarbamoyl)phenylsulfanyl]-3-E-[2-(pyridin-2-yl)ethenyl]-1H-indazole], in data set [3], the IC50 is above 100 nM. For the same compound, in data set [2] (setting [7]), the AUClast was determined as 683 ng·h/mL, the Cmax stood at 486 ng/mL and the “plasma half-life (T1/2)” value amounted to 1.0 h. Besides, the concentration at 7 h in data set [2] (setting [8]) came to 3 ng/mL.

For `Cc1ccc2cc(NC(=O)c3ccccc3Sc3ccc4c(/C=C/c5ccccn5)n[nH]c4c3)ccc2n1` [Example 33(b)], in data set [2] (setting [9]), the AUClast came out at 11245 ng·h/mL, the Cmax was 1990 ng/mL and the “plasma half-life (T1/2)” value was determined as 3.0 h. Moreover, in data set [2] (setting [10]), the AUClast was 3925 ng·h/mL, the Cmax is 1496 ng/mL and the “plasma half-life (T1/2)” value amounted to 3.0 h. Moreover, the concentration at 7 h in data set [2] (female, IP, 25 mg/kg, vehicle PEG400:H2O pH 2.3 60:40, read-out: Cmin (7 hr conc.)) is 902 ng/mL. Besides, the concentration at 7 h in data set [2] (female, PO, 50 mg/kg, vehicle PEG400:H2O pH 2.3 60:40, read-out: Cmin (7 hr conc.)) was found to be 76 ng/mL.

`Cc1cc(C(=O)Nc2cc(Nc3ccc4c(/C=C/c5ccccn5)n[nH]c4c3)c(F)cc2C)n(C)n1` [Example 48(b), 6N-(5-((1,3-Dimethyl-1H-pyrazol-5-yl)carboxanddo)-2-fluoro-4-methylphenyl)aminol-3-E-[2-(pyridin-2-yl)ethenyl]-1H-indazole]: the IC50 in data set [3] is around 8 nM. Further, in data set [2] (setting [7]), the AUClast turned out to be 2191 ng·h/mL and the “plasma half-life (T1/2)” value was found to be 4 h. Also, in data set [2] (setting [8]), the concentration at 7 h was 136 ng/mL.

Take `Cc1cc(C(=O)Nc2cc(Nc3ccc4c(/C=C/c5ccccn5)n[nH]c4c3)ccc2C)n(C)n1` [Example 49(b), 6-[N-(3-((1,3-Dimethyl-1H-pyrazol-5-yl)carboxamido)-4-methylphenyl)amino]-3-E-[2-(pyridin-2-yl)ethenyl]-1H-indazole]: the IC50 in data set [3] is around 10 nM. In data set [2] (setting [7]), the AUClast was 33750 ng·h/mL and the Cmax was found to be 5000 ng/mL. The concentration at 7 h in data set [2] (setting [8]) came to 5000 ng/mL.

`CC(C)NC(=O)c1ccccc1Sc1ccc2c(/C=C/c3ccccn3)n[nH]c2c1` [Example 35(b), 6-[2-(i-Propylcarbamoyl)phenylsulfanyl]-3-E-[2-(pyridin-2-yl)ethenyl]-1H-indazole]: the AUClast in data set [2] (setting [11]) was found to be 2840 ng·h/mL; in data set [2] (setting [12]) it was 4048 ng·h/mL. Moreover, the “plasma half-life (T1/2)” value in data set [2] (setting [11]) and in data set [2] (setting [12]) was 0.8 h each time. Also, the concentration at 7 h stood at 12 ng/mL in data set [2] (female, IP, 25 mg/kg, vehicle PEG400:H2O pH 2.3 30:70, read-out: Cmin (7 hr conc.)) and 13 ng/mL in data set [2] (female, PO, 50 mg/kg, vehicle PEG400:H2O pH 2.3 30:70, read-out: Cmin (7 hr conc.)).

The compound `Cc1cc(C(=O)Nc2cccc(C(=O)c3ccc4c(/C=C/c5ccccn5)n[nH]c4c3)c2)n(C)n1.Cl` [Example 59(b), 6-[3-((1,3-Dimethyl-1H-pyrazol-5-yl)carboxamido)benzoyl]-3-E-[2-(pyridin-2-yl)ethenyl]-1H-indazole Hydrochloride] returned an AUC(0-t) in data set [2] (female, PO, 50 mg/kg, vehicle CMC) of 276000 ng·h/mL. Also, the concentration at 7 hr in data set [2] (female, PO, 50 mg/kg, vehicle CMC, read-out: Cmin (7 hr conc.)) was 26900 ng/mL.

As to `O=C(NCc1ccncc1)c1ccccc1Sc1ccc2c(/C=C/c3ccccn3)n[nH]c2c1` [Example 35(p), 6-[2-((Pyrid-4-yl)methylcarbamoyl)phenylsulfanyl]-3-E-[2-(pyridin-2-yl)ethenyl]-1H-indazole], the IC50 in data set [3] is above 30 nM. Moreover, in data set [2] (setting [7]), the AUClast worked out at 1435 ng·h/mL and the “plasma half-life (T1/2)” value was 1.3 h. Further, the concentration at 7 h in data set [2] (setting [8]) was 5 ng/mL.

As to `O=C(NCCc1cccs1)c1ccccc1Sc1ccc2c(/C=C/c3ccccn3)n[nH]c2c1` [Example 35(hh), 6-[2-(2-(Thien-2-yl)ethylcarbamoyl)phenylsulfanyl]-3-E-[2-(pyridin-2-yl)ethenyl]-1H-indazole], in data set [2] (setting [7]), the AUClast is 292 ng·h/mL and the “plasma half-life (T1/2)” value amounted to 1.7 h. Further, in data set [2] (setting [8]), the concentration at 7 h came out at 5 ng/mL.

With `Cc1cccc(C(=O)Nc2cccc(Oc3ccc4c(/C=C/c5ccccc5)n[nH]c4c3)c2)c1` [5b], in data set [2] (setting [13]), the AUClast came out at 61 ng·h/mL and the “plasma half-life (T1/2)” value is 3.1 h.
